Assay results: patent publication US20200385331A1, “ALTERNATIVE KETONE ESTERS AND PRODUCTION PROCESSES THEREOF” (KetoneAid Inc., priority 2018, published 2020)

Legend:
[1] = exposure to conditions mimicking the pH of the gut (beta hydroxy dehydration at low pH); format: physicochemical; conditions: for dehydration of exposed beta hydroxy groups relative to the salts or free acid of β-hydroxybutyrate: low pH conditions
Description: The present invention generally relates to means of protecting or stabilizing the beta hydroxy group in β-hydroxybutyrate in order to prevent beta hydroxy dehydration in the presence of strong acid, such as found in the stomach. That reaction is a type of gastric degradation which yield compounds with no known metabolic therapy. […] Stabilizing the beta hydroxy group is possible by replacing the carboxylic acid functional group with an ester functional group, which prevents resonance between the two oxygen atoms by hydrogen and considerably stabilizes the beta hydroxy group reducing dehydration by as much as 40% compared to salts and the free acid of β-hydroxybutyrate. Protecting the beta hydroxy group is defined by replacing the beta hydroxy group with a second molecule of β-hydroxybutyrate forming an ester bond at the previous beta hydroxy functional group and yielding a dimer ester (DE) of β-hydroxybutyrate. Further described herein are similar therapeutic agents, compositions, and production processes thereof. […] The Dimer Esters protecting the beta hydroxy group are far less susceptible than any other identified compound to dehydration because only one beta hydroxy group is exposed of the two effective molecules of β-hydroxybutyrate This is disclosed in the prior art providing room for more advantageous compounds and formulations thereof as described herein. A third experiment was carried out exposing the salts and KME to conditions mimicking the pH of the gut.

[2] = healthy resting adults; cited from earlier work

Structure (SMILES)	dehydration of exposed beta hydroxy groups relative to the salts or free acid of β-hydroxybutyrate [1]	dehydration on exposure to conditions mimicking the pH of the gut ([1]; third experiment, yields undesirable products)	increase of myocardial output [2] [%]
C[C@@H](O)CCOC(=O)C[C@@H](C)O [KME, (3R)-hydroxybutyl (3R)-hydroxybutyrate]	dehydrate to a far lesser extent	Rapid dehydration was observed	
CC(CCO)OC(=O)C[C@@H](C)O (stereo partly shown) [SKE]	dehydrate to a far lesser extent		
CC(O)CC(=O)O (stereo not drawn) [beta hydroxybutyrate]			50
